Where a name gives a salt, the structure may show the parent alone.

For the first assay, the system named is episomal HPV-16 DNA in W12-20850 cells. Nature of the assay: W-12 cellular assay (hybrid capture quantification of episomal HPV-16 DNA). It is filed as cell-based, HPV16. The following applies: Human papillomavirus 16, 96 h; W12-20850 cells, four days incubation, episomal HPV-16 DNA by hybrid capture, inhibition relative to untreated control cells; read-out: W-12. The procedure:
Compounds of the current invention are believed useful in the treatment and/or prophylaxis of conditions and diseases associated with HPV infection. Activity mediated through HPV was determined using the following W-12 cellular assay.
The W12 cell line used contains HPV16 DNA and was derived from a low-grade cervical dysplasia tissue by Margaret Stanley and subsequently clonally selected by Paul Lambert (University of Wisconsin). One of these clones, W12-20850, contains 1000 copies of episomal HPV16 DNA and was used in the cell-based assay. W12-20850 cells were routinely cultured with a gamma-irradiated (6000 rads) feeder layer of 3T3 cells. Assays, however, were run in the absence of a 3T3 feeder layer. W12-20850 and 3T3 cells were routinely split when they were sub-confluent. W12-20850 were grown in W12 Medium which is constituted of 25% DMEM (Gibco BRL, Cat # 12430-047), 75% F12 Media (Gibco BRL, Cat # 11765-021) and 2.5% FBS. The additives include […] Adenine (Sigma, Cat # A-9795), […] Hydrocortisone (Calbiochem, Cat # 386698); 5.0 mg/ml Bovine Insulin (Sigma, Cat # I-1882), 8.4 ng/ml cholera toxin (Fluka, Cat # 26694) and 10 ng/ml EGF (Invitrogen, Cat # 13247-051). 3T3 cells were grown in DMEM containing 10% FBS. Cell lines were incubated at 37° C., in the presence of 5% CO2.
For the assay, W12-20850 cells were seeded into a 96 well plate-containing compound. Plates were incubated at 37° C. in the presence of 5% CO2, for four days. On the fourth day, cells were lysed and the amount of episomal. HPV-16 DNA was quantified using a non-radioactive hybrid capture technique with HPV-16 specific capture and detection probes. The percent inhibition relative to untreated control cells' was then determined.
The hybrid capture assay is run in a 96 well plate format. Hybridization plates (Nunc Maxisorb Cat # 450320) were coated with a mixture of capture probe and ReactiBind solution for at least 4 hours and then washed with 0.2×SSC, 0.05% Tween20 (SSCT) prior to blocking with […] of 0.2 N NaOH, 1% Igepal, 10 mg/ml hsDNA for 6-8 hours. The hybridization was carried out by mixing 27 μl of lysed cells with 45 μl of denatured detection probe in 6M guanidine isothiocyanate. To prevent evaporation, 50 μl of mineral oil was added to each well. The plate was then heated to 90° C. for 6.5 minutes and the hybridization continued at 42° C. overnight. Assay plates were washed 6 times with SSC/T. Anti-digoxigenin HRP-conjugated Ab (Boehringer Mannheim 1207733, 1:5000) was incubated in the wells for 30 min at room temperature and washed with PBS/0.05% Tween-20. SuperSignal LBA substrate (Pierce Cat # 37070) was added, and chemiluminescence was measured using Wallac 1420 Victor plate reader.
With `Brc1ccc2[nH]c3c(c2c1)CCC3NCCc1ccccc1` (stereo not drawn) [Example 50, 7-Bromo-N-(2-phenylethyl)-1,2,3,4-tetrahidrocyclopenta[b]indol-3-amine hydrochloride salt], the IC50 was found to be 11000 nM.

Consider `C[C@@H](N[C@@H]1CCc2c1[nH]c1ccc(Br)cc21)c1ccccc1` [Example 51, (3R)-7-Bromo-N-[(1R)-1-phenylethyl]-1,2,3,4-tetrahydrocyclooenta[b]indol-3-amine hydrochloride salt], for which the IC50 turned out to be 122 nM.

As to `C[C@@H](N[C@H]1CCc2c1[nH]c1ccc(Br)cc21)c1ccccc1` [Example 52, (3S)-7-Bromo-N-[(1R)-1-phenylethyl]-1,2,3,4-tetrahydrocyclobenta[b]indol-3-amine hydrochloride salt], the IC50 was determined as 29000 nM.

Consider `C[C@@H](NC1CCCCc2c1[nH]c1ccc(Br)cc21)c1ccccc1` (stereo partly drawn) [Example 55, 2-Bromo-N-[(1R)-1-phenylethyl]-5,6,7,8,9,10-hexahydrocycloheota[b]indol-6-amine hydrochloride], for which the IC50 came out at 1000 nM.

For `Brc1ccc2[nH]c3c(c2c1)CCCCC3NCCc1ccccc1` (stereo not drawn) [Example 56, 2-Bromo-N-(2-phenylethyl)-5,6,7,8,9,10-hexahydrocycloheDta[b]indol-6-amine hydrochloride], the IC50 came to 774 nM.

Turning to `Brc1ccc2c3c([nH]c2c1)C(NC1Cc2ccccc2C1)CCC3` (stereo not drawn) [Example 63, 7-Bromo-N-(2.3-dihydro-1H-inden-2-yl)-2,3,4,9-tetrahydro-1H-carbazol-1-amine hydrochloride], the IC50 turned out to be 3900 nM.

In the case of `Brc1ccc2[nH]c3c(c2c1)CCCC3OCc1ccccc1` (stereo not drawn) [Example 64, 6-Bromo-1-[(phenylmethyl)oxy]-2,3,4,9-tetrahydro-1H-carbazole], the IC50 came out at 95 nM.

`CC(C)NC(=O)NC1CCCc2c1[nH]c1ccc(Br)cc21` (stereo not drawn) [Example 65, N-(6-Bromo-2,3,4,9-tetrahydro-1H-carbazol-1-yl)-N′-isopropylurea]: the IC50 was determined as 5000 nM.

As for `COC(=O)NC1CCCc2c1[nH]c1ccc(Br)cc21` (stereo not drawn) [Example 66, Methyl 6-bromo-2,3,4,9-tetrahydro-1H-carbazol-1-ylcarbamate], the IC50 worked out at 165 nM.

Turning to `CC(=O)NC1CCCc2c1[nH]c1ccc(Br)cc21` (stereo not drawn) [Example 67, N-(6-Bromo-2,3,4,9-tetrahydro-1H-carbazol-1-yl)acetamide], the IC50 is 13000 nM.

On to `O=C(NC1CCCc2c1[nH]c1ccc(Br)cc21)C1CCCCC1` (stereo not drawn) [Example 68, N-(6-Bromo-2,3,4,9-tetrahydro-1H-carbazol-1-yl)cyclohexanecarboxamide], for which the IC50 was 380 nM.

Consider `CS(=O)(=O)NC1CCCc2c1[nH]c1ccc(Br)cc21` (stereo not drawn) [Example 69, N-(6-Bromo-2,3,4,9-tetrahydro-1H-carbazol-1-yl)methanesulfonamide], for which the IC50 worked out at 2300 nM.

Consider `NC(=O)NC1CCCc2c1[nH]c1ccc(Br)cc21` (stereo not drawn) [Example 70, N-(6-Bromo-2,3,4,9-tetrahydro-1H-carbazol-1-yl)urea], for which the IC50 was determined as 10300 nM.

The assay is the same for the next values; noted with them: Human papillomavirus 16, W12-20850, 96 h, read-out: W-12.
For the compound `Cc1ccc2[nH]c3c(c2c1)CCC[C@H]3N[C@@H](C)c1ccccc1` [Example 47, (1R)-6-Methyl-N-[(1S)-1-phenylethyl]-2,3,4,9-tetrahydro-1H-carbazol-1-amine hydrochloride salt], the IC50 amounted to 160 nM.

For `C[C@@H](NC1CCCc2c1[nH]c1ccc([N+](=O)[O-])cc21)c1ccccc1` (stereo partly drawn) [Example 49, 6-Nitro-N-[(1R)-1-phenylethyl]-2,3,4,9-tetrahydro-1H-carbazol-1-amine hydrochloride salt], the IC50 worked out at 83 nM.

As for `COc1ccc2[nH]c3c(c2c1)CCCC3NCc1ccccc1` (stereo not drawn) [Example 53, N-Benzyl-6-methoxy-2,3,4,9-tetrahydro-1H-carbazol-1-amine hydrochloride salt], the IC50 was found to be 7600 nM.

With `Brc1ccc2[nH]c3c(c2c1)CCCCC3NCc1ccccc1` (stereo not drawn) [Example 54, N-Benzyl-2-bromo-5,6,7,8,9,10-hexahydrocyclohepta[b]indol-6-amine hydrochloride], the IC50 came to 1100 nM.

Take `Fc1ccc(CNC2CCCc3c2[nH]c2ccc(Br)cc32)cc1` (stereo not drawn) [Example 57, 6-Bromo-N-(4-fluorobenzyl)-2,3,4,9-tetrahydro-1H-carbazol-1-amine hydrochloride]: the IC50 was found to be 139 nM.

Turning to `FC(F)(F)c1ccc2[nH]c3c(c2c1)CCCC3NCc1ccccc1` (stereo not drawn) [Example 58, N-Benzyl-6-(trifluoromethyl)-2,3,4,9-tetrahydro-1H-carbazol-1-amine hydrochloride], the IC50 came out at 1000 nM.

On to `C[C@@H](NC1CCCc2c1[nH]c1ccc(C(F)(F)F)cc21)c1ccccc1` (stereo partly drawn) [Example 59, N-[(1R)-1-Phenylethyl]-6-(trifluoromethyl)-2,3,4,9-tetrahydro-1H-carbazol-1-amine hydrochloride], for which the IC50 was determined as 287 nM.

Take `Brc1ccc2[nH]c3c(c2c1)CCCC3NC(c1ccccc1)c1ccccc1` (stereo not drawn) [Example 60, N-Benzhydryl-6-bromo-2,3,4,9-tetrahydro-1H-carbazol-1-amine hydrochloride]: the IC50 is 14 nM.

Consider `Brc1ccc2c3c([nH]c2c1)C(NCc1ccccc1)CCC3` (stereo not drawn) [Example 61, N-Benzyl-7-bromo-2,3,4,9-tetrahydro-1H-carbazol-1-amine hydrochloride], for which the IC50 was 11000 nM.

In the case of `C[C@@H](NC1CCCc2c1[nH]c1cc(Br)ccc21)c1ccccc1` (stereo partly drawn) [Example 62, 7-Bromo-N-[(1R)-1-phenylethyl]-2,3,4,9-tetrahydro-1H-carbazol-1-amine hydrochloride], the IC50 was found to be 8000 nM.

On to `Brc1cccc2c3c([nH]c12)C(NCc1ccccc1)CCC3` (stereo not drawn) [Example 71, N-Benzyl-8-bromo-2,3,4,9-tetrahydro-1H-carbazol-1-amine hydrochloride], for which the IC50 stood at 11400 nM.

These data come from patent US7622494B2, “Chemical compounds” (SmithKline Beecham Corporation, priority 2003, dated 2009).
